US20110189260A1, “USE OF ZINC CHELATORS TO INHIBIT BIOFILM FORMATION” (UNIVERSITY OF CINCINNATI, priority 2008, published 2011)
Read-outs that look alike come from different tables or passages of the source.

Columns and labels:
[1] = system: Methicillin-Resistant Staphylococcus epidermidis Strain RP62a; experiment: Biofilm formation assay in 96 well plates, crystal violet, absorbance at 570 nm (Example 8); format: cell-based; details: 18-24 hours, 37° C.
Protocol: S. epidermidis strain RP62a (ATCC 35984) was obtained as a glycerol stock from ATCC. 3 ml overnight cultures were grown in tryptic soy broth (TSB, BD Biomedical), shaking at 37° C., and cultures were diluted 1:200 in TSB for use in the biofilm assay.
Each chelator (prepared in Examples 1-6) was added directly to a 96 well microtiter plate in a series of dilutions. 20 μl of each stock solution (200, 400, 800, 1600, 3200, 6400, 13000, or 26000 μM chelator) was added to each well. 200 μl of the 1:200 dilution of RP62a bacterial culture (as previously specified) was added to each well. Controls with bacterial culture media only and bacterial culture media plus vehicle controls only (i.e., final concentrations 10 mM HCl, 10% ethanol, or 10 mM NaOH) were added to wells alone without chelator. The 96 well plates were then incubated 18-24 hours statically at 37° C. Media was aspirated by pipet and wells were washed twice with filtered water. The plates were dried by inversion for 1 hour, and stained with 0.1% crystal violet for 15 minutes. Crystal violet was then aspirated by pipet and washed once with filtered water. The plates were then read on a spectrophotometer at a wavelength of 570 nm. An absorbance greater than 0.1 indicates biofilm formation.

[2] = system: Staphylococcus aureus Strain Rosenbach SA113; experiment: Biofilm formation assay in FBS pre-treated 96 well plates, crystal violet (Example 9); format: cell-based; details: SA113, 2% glucose, 36-40 hours
Protocol: In addition, 96 well microtiter plates were pre-treated with fetal bovine serum (FBS) at 4° C. for at least 24 hours prior to use. The FBS was aspirated prior to addition of chelators and glucose for the assay. […] The 96 well plates were then incubated 36-40 hours statically at 37° C. Media was aspirated by pipet and wells were washed twice with filtered water. The plates were dried by inversion for 1 hour, and stained with 0.1% crystal violet for 15 minutes. Crystal violet was then aspirated by pipet and washed once with filtered water. The plates were then read on a spectrophotometer at a wavelength of 570 nm.

[3] = system: Methicillin-Resistant Staphylococcus aureus Strain USA300; experiment: Biofilm formation assay in fibronectin pre-treated 96 well plates, crystal violet (Example 11); format: cell-based; details: USA300, 2% glucose, 36-40 hours
Protocol: S. aureus strain USA300 was obtained from Daniel Hassett (University of Cincinnati) as a glycerol stock. 3 ml overnight cultures were grown in blood-heart infusion broth (BHI) shaking at 37° C., where cultures were diluted 1:25 for use in the biofilm assay. 2% glucose (20 ul from a 20% glucose stock) was added to each well prior to the addition of bacterial culture to promote biofilm formation. In addition, 96 well microtiter plates were pre-treated with human fibronectin (BD biomedical purchased from Fisher scientific). The fibronectin was aspirated prior to addition of chelators and glucose for the assay. Each chelator (prepared in Examples 1-6) was added directly to a 96 well microtiter plate in a series of dilutions. 20 μl of each stock solution (200, 400, 800, 1600, 3200, 6400, 13000, or 26000 μM chelator) was added to each well. 200 μl of the 1:25 dilution of USA300 bacterial culture dilution (as previously specified) were added to each well. Controls with bacterial culture media only and bacterial culture media plus vehicle controls only (final concentrations 10 mM HCl, 10% ethanol, and 10 mM NaOH) were added to wells alone without chelator. The 96 well plates were then incubated 36-40 hours statically at 37° C. Media was aspirated by pipet and wells were washed twice with filtered water. The plates were dried by inversion for 1 hour, and stained with 0.1% crystal violet for 15 minutes. Crystal violet was then aspirated by pipet and washed once with filtered water. The plates were then read on a spectrophotometer at a wavelength of 570 nm. An absorbance greater than 0.1 indicates biofilm formation.

[4] = system: S. epidermidis RP62A biofilms; experiment: RP62A biofilms on polystyrene visualized with crystal violet (FIG. 3A, 3C, 4, 7, 8); format: cell-based; details: RP62A on polystyrene, FIG. 3A
Protocol: (§1) FIG. 3. (A) S. epidermidis RP62A biofilms formed on polystyrene and were visualized with crystal violet; addition of the Zn^2+ chelator DTPA (≧30 μM) inhibits biofilm formation. Representative wells have been scanned (bottom). Untreated (“RP62A”) and vehicle (“HCl”) controls are shown. Error bars show standard deviation (* indicates p<0.05 relative to untreated control; n=3); (B) Methicillin-resistant S. aureus USA300 biofilms form on fibronectin-coated plates but are inhibited by addition of DTPA (≧30 μM). (*: p<0.05; n=4); (C) Addition of 5-20 μM ZnCl2 at a minimal inhibitory dose of DTPA (30 μM) rescues biofilm formation by RP62A.
FIG. 4. […] (*: p<0.05 relative to RP62A control at the relevant Zn^2+ concentration; n=3); (B) Dose response of biofilm inhibition by MBP-Brpt1.5 at a fixed 1 mM ZnCl2 concentration. (*: p<0.0005; n=3); (C) The “zinc zipper” model for intercellular adhesion in staphylococcal biofilms mediated by zinc-dependent self-association of G5 domains.
FIG. 7. […] All data at 30 μM DTPA show statistically significant decreases compared to no-treatment control (RP62A). Statistically significant increases over the 0 μM MnCl2/30 μM DTPA datapoint are marked with an asterisk (*).
To test the physiological role of Zn^2+-mediated G5 adhesion in the formation of staphylococcal biofilms, both S. epidermidis and S. aureus biofilms were grown in culture in the presence or absence of the Zn^2+ chelator diethylenetriaminepentaacetic acid (DTPA). DTPA was non-toxic at all concentrations tested (up to 100 μM). S. epidermidis strain RP62A formed robust biofilms when cultured in media alone, but biofilm growth was inhibited by non-toxic doses of DTPA (≧30 μM) (FIG. 3A).
To determine whether Zn^2+-dependent biofilm formation is specifically dependent upon G5 domain-mediated self-assembly, soluble Brpt1.5 was added to S. epidermidis RP62A biofilms as a maltose-binding protein (MBP) fusion. Because of the higher Zn^2+ concentrations required to induce dimerization in the short construct compared to full-length Aap, inhibition by MBP-Brpt1.5 was tested at Zn^2+ concentrations ranging up to 1 mM. RP62A biofilms were inhibited by soluble MBP-Brpt1.5 in the presence of 0.75 and 1 mM ZnCl2, whereas addition of MBP alone had no effect (FIG. 4A). […] Thus, addition of even a single intact zinc adhesion module in a soluble form is capable of inhibiting biofilm formation, highlighting the role of this domain as a Zn^2+-dependent adhesion module in staphylococcal biofilms.

[5] = system: Methicillin-resistant S. aureus USA300 biofilms; experiment: USA300 biofilms on fibronectin-coated plates (FIG. 3B, 3D); format: cell-based; details: USA300 on fibronectin-coated plates, FIG. 3B
Protocol: as §1
S. aureus strain USA300, which is responsible for recent epidemic outbreaks of community-acquired methicillin-resistant S. aureus (MRSA) infections, formed biofilms on fibronectin-coated plates. As observed for S. epidermidis, the MRSA biofilms were inhibited by Zn^2+ chelation (≧30 μM DTPA) (FIG. 3B). […] Like S. epidermidis, the MRSA strain USA300 could be rescued by the addition of 15-20 μM ZnCl2 (FIG. 3D). Importantly, at the minimal inhibitory concentration of DTPA (30 μM), biofilm growth by both staphylococcal species could be rescued by the addition of 5-20 μM ZnCl2; these Zn^2+ concentrations are similar to the physiological range in human plasma (12-16 μM resting concentration).

[6] = system: S. epidermidis RP62A biofilms; experiment: RP62A biofilms on polystyrene visualized with crystal violet (FIG. 3A, 3C, 4, 7, 8); format: cell-based
[7] = Mn; cited from earlier work
[8] = Zn; cited from earlier work
[9] = Ca; cited from earlier work
[10] = Sr; cited from earlier work
[11] = Mg; cited from earlier work
[12] = target: Brpt2.5 (Aap construct with two G5 domains and the C-terminal cap) (Staphylococcus epidermidis)
[13] = target: Brpt2.5 (Aap construct with two G5 domains and the C-terminal cap) (Staphylococcus epidermidis); experiment: sedimentation equilibrium AUC, monomer-dimer association at 2 mM Zn
[14] = target: Brpt2.5 (Aap construct with two G5 domains and the C-terminal cap) (Staphylococcus epidermidis); experiment: sedimentation equilibrium AUC, monomer-dimer association at 5 mM Zn
[15] = target: Brpt2.5 (Aap construct with two G5 domains and the C-terminal cap) (Staphylococcus epidermidis); experiment: sedimentation equilibrium AUC at 0 mM Zn; sequence mass monomer 35,971, dimer 71,942
[16] = target: Brpt2.5 (Aap construct with two G5 domains and the C-terminal cap) (Staphylococcus epidermidis); experiment: sedimentation equilibrium AUC at 10 mM Zn; sequence mass monomer 35,971, dimer 71,942
[17] = target: the molecule itself; experiment: sedimentation velocity analytical ultracentrifugation; self-association with and without 10 mM ZnCl2, normalized c(s) [panel E]
[18] = target: the molecule itself
[19] = target: the molecule itself; experiment: sedimentation equilibrium AUC, monomer-dimer association at 2 mM Zn; 2 mM Zn (ZnCl2), sedimentation equilibrium
[20] = target: the molecule itself; experiment: sedimentation equilibrium AUC, monomer-dimer association at 5 mM Zn; 5 mM Zn (ZnCl2), sedimentation equilibrium
[21] = target: the molecule itself; experiment: sedimentation equilibrium AUC, monomer-dimer association at 10 mM Zn; 10 mM Zn (ZnCl2), sedimentation equilibrium
[22] = system: G5 domains of Aap (Zn^2+-mediated monomer-dimer association); details: 10 mM ZnCl2, pH 7.4 to 6.0, FIG. 6B
Protocol: The dashed line label (- - -) represents cation-free Brpt1.5; (B) Far-UV CD spectrum of Brpt1.5 in the presence (squares) and absence (triangles) of Zn; (C) Sedimentation equilibrium analysis of Zn^2+-mediated dimerization of Brpt1.5 (triangles) and Brpt2.5 (squares). […] Error bars show 95% confidence intervals; (D) Linked equilibrium plot of Zn binding by Brpt1.5.
(A) Sedimentation velocity analysis of the Zn^2+-dependent dimerization of Brpt1.5 as a function of pH in 20 mM Tris, 20 mM MES, 50 mM NaCl, and 10 mM ZnCl2. […] Dashed lines show data collected in the absence of Zn^2+, and solid lines show data collected at 10 mM ZnCl2.
To analyze the linked equilibria between dimerization and Zn^2+ binding, the logarithm of the dimerization association constant was plotted against the logarithm of the free Zn^2+ concentration to reveal the net number of Zn^2+ ions participating in the dimerization interface.

O=C(O)CN(CCN(CC(=O)O)CC(=O)O)CCN(CC(=O)O)CC(=O)O [DTPA, diethylenetriaminepentaacetic acid]
chelator concentration at which biofilms were diminished but not cleared [1]: 20 µM
chelator concentration at which biofilms were inhibited (absorbance of 0.1 or less) [1]: 40 µM
chelator concentration at which biofilms were inhibited (absorbance of 0.1 or less) [2]: 20 µM
chelator concentration at which biofilms were diminished but not cleared [3]: 20 µM
concentration that inhibits biofilm formation [4]: ≥ 30 µM
concentration that inhibits biofilm formation [5]: ≥ 30 µM
disruption of pre-formed biofilms [6]: did not disrupt
affinity for DTPA (log K) [7]: 15.5
affinity for DTPA (log K) [8]: 18.75
affinity for DTPA (log K) [9]: 10.74
affinity for DTPA (log K) [10]: 9.68
affinity for DTPA (log K) [11]: 9.3

Brpt2.5 (Aap construct with two G5 domains and the C-terminal cap)
EC50 of [Zn2+] for dimerization [12]: 3700 µM
Kd [13]: 25.5 µM
Kd [14]: 0.072 µM
Mexperimental (molecular weight) [15]: 37000
Mexperimental (molecular weight) [16]: 78500

B1: H75A/H85A Brpt1.5 mutant (other)
chain: VDGDSITSTEEIPFDKKREFDPNLAPGTEKVVQKGEPGTKTITTPTTKNPLTGEKVGEGEPTEKITKQPVDEIVAYGGEQIPQGAKDEFDPNAPVDSKTEVPGKPGVKNPDTGEVVTPPVDDVTKYGPVDGDSITSTEEIPFDKKREFDPNLAPGTEKVVQKGEPGTKTITTPTTKNPLTGEKVGEGKSTEKVTKQPVDEIVEYGPTK
notes: also called histidine-null mutant
binding result [17]: binds

B2: Brpt1.5 (C-terminal G5 domain of the B-repeat region of Aap followed by the C-terminal 79 amino acid half-repeat) (other)
chain: VDGDSITSTEEIPFDKKREFDPNLAPGTEKVVQKGEPGTKTITTPTTKNPLTGEKVGEGEPTEKITKQPVDEIVHYGGEQIPQGHKDEFDPNAPVDSKTEVPGKPGVKNPDTGEVVTPPVDDVTKYGPVDGDSITSTEEIPFDKKREFDPNLAPGTEKVVQKGEPGTKTITTPTTKNPLTGEKVGEGKSTEKVTKQPVDEIVEYGPTK
notes: also called wild-type Brpt1.5; zinc adhesion module
EC50 of [Zn2+] for dimerization [18]: 5400 µM
Kd [19]: 113 µM
Kd [20]: 5.06 µM
Kd [21]: 0.353 µM

B3: Brpt1.5: single G5 domain of Aap B-repeat region followed by the C-terminal 79 amino acid half-repeat (protein)
chain: VDGDSITSTEEIPFDKKREFDPNLAPGTEKVVQKGEPGTKTITTPTTKNPLTGEKVGEGEPTEKITKQPVDEIVHYGGEQIPQGHKDEFDPNAPVDSKTEVPGKPGVKNPDTGEVVTPPVDDVTKYGPVDGDSITSTEEIPFDKKREFDPNLAPGTEKVVQKGEPGTKTITTPTTKNPLTGEKVGEGKSTEKVTKQPVDEIVEYGPTK
apparent pKa of dimer to monomer transition [22]: 6.7
